For experiment [1], the system named is Ralstonia solanacearum. In kind it is in vivo. The conditions noted are these: tomato, 33 days after transplantation.
Experiment [2] relates to Ralstonia solanacearum. In kind it is in vivo. The conditions noted are these: tomato, 17 days after transplantation, 10 mgAI/m^2.

The structures appear in SMILES notation. Like-named read-outs stand apart in the source and are kept apart here.

Take `CCOP(=O)(SC(C)CC)N1CCSC1=O` (stereo not shown) [Fosthiazate, fosthiazate]: the “Controlling value (%)” value in the experiment with Ralstonia solanacearum [1] (300 mgAI/m^2, with Paecilomyces fumosoroseus 3 × 10^9 CFU/m^2 (+)) was found to be 85%; with Ralstonia solanacearum [1] (300 mgAI/m^2, without Paecilomyces fumosoroseus (−)), 0%.

As for `CCOP(=O)(SC(C)CC)SC(C)CC` (stereo not shown) [Cadusafos, cadusafos], the “Controlling value (%)” value in the experiment with Ralstonia solanacearum [1] (900 mgAI/m^2, with Paecilomyces fumosoroseus 3 × 10^9 CFU/m^2 (+)) is given as 100%; with Ralstonia solanacearum [1] (900 mgAI/m^2, without Paecilomyces fumosoroseus (−)), 50%.

For the compound `O=C(NCCc1ncc(C(F)(F)F)cc1Cl)c1ccccc1C(F)(F)F` [Fluopyram, fluopyram], the “Controlling value (%)” value was found to be 62% in the experiment with Ralstonia solanacearum [1] (10 mgAI/m^2, with Paecilomyces fumosoroseus 3 × 10^9 CFU/m^2 (+)) and 0% in the experiment with Ralstonia solanacearum [1] (10 mgAI/m^2, without Paecilomyces fumosoroseus (−)).

For the compound `O=S(=O)(CCC(F)=C(F)F)c1ncc(Cl)s1` [Fluensulfone, fluensulfone], the “Controlling value (%)” value with Ralstonia solanacearum [1] (400 mgAI/m^2, with Paecilomyces fumosoroseus 3 × 10^9 CFU/m^2 (+)) is recorded as 85%; in the experiment with Ralstonia solanacearum [1] (400 mgAI/m^2, without Paecilomyces fumosoroseus (−)) it was 0%.

Take `COP(=S)(OC)Oc1ccc([N+](=O)[O-])c(C)c1` [MEP, MEP (fenitrothion)]: the “Controlling value (%)” value with Ralstonia solanacearum [2] (with Paecilomyces fumosoroseus 3 × 10^9 CFU/m^2 (+)) is reported as 75%; in the experiment on Ralstonia solanacearum [2] (without Paecilomyces fumosoroseus (−)), 0%.

The record behind these values is US11832615B2 (priority 2013, dated 2023).
